Results on 17 compounds are retold here after ChEMBL document CHEMBL3612011, “Synthesis of new opioid derivatives with a propellane skeleton and their pharmacologies: Part 5, novel pentacyclic propellane derivatives with a 6-amide side chain” (Bioorg Med Chem, 2015).

The source made the active and inactive calls. The rule behind the calls is not given here.

Data set [1] is described as follows: Selectivity index, ratio of Ki for MOR in guinea pig cerebellum membranes to Ki for KOR in mouse whole brain membranes without cerebellum. The data set is classed as cell membranes.
The next data set deals with Mu-type opioid receptor (Cavia porcellus, UniProt P97266). The data set can be described thus: Displacement of [3H]DAMGO from MOR in guinea pig cerebellum membranes. The data set is classed as cell membranes, Membrane. Background: Loss of bound radioactivity is the signal in a displacement assay; it reports binding, not function.
Data set [2] has as its target Delta-type opioid receptor (Mus musculus, UniProt P32300). The data set can be described thus: Displacement of [3H]DPDPE from DOR in mouse whole brain membranes without cerebellum. The class given is cell membranes, Membrane.
For data set [3], the target named is Kappa-type opioid receptor (Mus musculus, UniProt P33534). Nature of the data set: Displacement of [3H]U69,593 from KOR in mouse whole brain membranes without cerebellum. The class given is cell membranes, Membrane.
The species named for data set [4] is Mus musculus. The data set can be described thus: Selectivity index, ratio of Ki for DOR in mouse whole brain membranes without cerebellum to Ki for KOR in mouse whole brain membranes without cerebellum. The data set is classed as cell membranes.
Data set [5] is filed under the species Mus musculus. Nature of the data set: Induction of sedation in ICR mouse by spontaneous locomotor activity test. The data set is classed as organism-based. The settings on record: in vivo.
For data set [6], the system named is Mus musculus. The data set can be described thus: Antinociceptive activity in ICR mouse assessed as reduction in acetic acid-induced abdominal writhing dosed subcutaneously 15 mins before acetic acid challenge. The following applies: Abdomen; for ED50: sc. The class given is functional. On the technique in general: In writhing tests, fewer writhes than in controls are read as antinociception.

Data set [7] concerns the target T1, Kappa-type opioid receptor (Homo sapiens, UniProt P41145). Nature of the data set: Agonist activity at human KOR expressed in CHO cell membranes by [35S]GTPgammaS binding assay relative to U69,593. The data set is classed as functional. (GTPγS resists hydrolysis and so accumulates on activated G proteins.)
The test system of data set [8] is Mus musculus. Nature of the data set: Antinociceptive activity in ICR mouse assessed as reduction in acetic acid-induced abdominal writhing dosed subcutaneously 15 mins before acetic acid challenge and treated 24 hrs after 10 mg/kg, sc KOR antagonist nor-Binaltorphimin dosing. The data set is classed as functional, organism-based. The following applies: Abdomen.

The target of data set [9] is T1, Kappa-type opioid receptor. The data set can be described thus: Agonist activity at human KOR expressed in CHO cell membranes by [35S]GTPgammaS binding assay. The class given is functional.
Data set [10] can be described thus: Therapeutic index, ratio of ED50 for induction of sedation in ICR mouse by spontaneous locomotor activity test to ED50 for antinociceptive activity in ICR mouse by acetic acid abdominal constriction test. The class given is organism-based, Abdomen. The settings on record: in vivo, read-out: Ratio ED50.

Sequence of Kappa-type opioid receptor (Mus musculus, UniProt P33534) (P33534 whole entry): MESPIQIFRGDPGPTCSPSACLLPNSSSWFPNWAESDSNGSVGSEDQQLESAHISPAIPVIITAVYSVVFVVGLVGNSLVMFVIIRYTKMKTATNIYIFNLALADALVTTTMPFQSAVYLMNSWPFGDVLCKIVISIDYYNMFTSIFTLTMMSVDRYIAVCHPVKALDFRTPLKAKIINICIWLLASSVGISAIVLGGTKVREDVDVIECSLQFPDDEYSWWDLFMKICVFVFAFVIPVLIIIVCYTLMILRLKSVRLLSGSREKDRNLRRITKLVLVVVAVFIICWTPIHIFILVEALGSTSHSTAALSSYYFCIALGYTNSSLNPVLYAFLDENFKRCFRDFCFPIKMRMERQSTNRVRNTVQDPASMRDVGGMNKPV
Sequence of Delta-type opioid receptor (P32300 whole entry): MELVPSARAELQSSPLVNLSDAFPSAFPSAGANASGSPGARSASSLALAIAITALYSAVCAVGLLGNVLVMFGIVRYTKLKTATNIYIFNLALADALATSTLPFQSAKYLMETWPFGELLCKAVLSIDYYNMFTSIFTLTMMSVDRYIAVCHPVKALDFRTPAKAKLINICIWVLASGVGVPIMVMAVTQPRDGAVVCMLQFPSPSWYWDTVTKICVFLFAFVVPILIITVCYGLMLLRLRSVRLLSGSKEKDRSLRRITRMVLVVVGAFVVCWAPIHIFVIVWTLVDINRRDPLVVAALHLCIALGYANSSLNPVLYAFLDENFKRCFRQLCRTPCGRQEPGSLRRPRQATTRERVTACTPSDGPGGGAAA
Sequence of Mu-type opioid receptor (P97266 whole entry): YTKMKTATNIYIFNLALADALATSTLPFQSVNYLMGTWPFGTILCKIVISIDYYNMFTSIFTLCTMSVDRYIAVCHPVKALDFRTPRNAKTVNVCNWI
T1 sequence (P41145 whole entry): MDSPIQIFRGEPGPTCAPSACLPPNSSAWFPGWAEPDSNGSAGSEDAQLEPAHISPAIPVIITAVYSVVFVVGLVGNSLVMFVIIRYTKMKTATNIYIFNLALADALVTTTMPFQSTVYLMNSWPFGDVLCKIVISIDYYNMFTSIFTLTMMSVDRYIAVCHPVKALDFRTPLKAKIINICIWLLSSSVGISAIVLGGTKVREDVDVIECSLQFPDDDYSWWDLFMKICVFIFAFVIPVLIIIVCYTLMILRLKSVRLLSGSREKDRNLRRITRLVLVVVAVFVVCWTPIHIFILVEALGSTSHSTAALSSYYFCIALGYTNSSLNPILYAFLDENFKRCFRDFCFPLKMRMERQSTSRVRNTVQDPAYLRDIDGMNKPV

As a reminder, the Ki is a measure of affinity in units of concentration, obtained from inhibition or displacement. Read a low Ki as higher affinity. `CN(C(=O)/C=C/c1ccoc1)[C@H]1C[C@@]23CCN(CC4CC4)[C@H]4CC[C@@H]1C[C@]42Cc1ccc(O)cc13`: the Ratio Ki stood at 5.73 in data set [1] and 2.28 in the data set filed under Mus musculus [4]. For the same compound, the results for the Ki (at Mu-type opioid receptor; in data set [2]; in [3]) were 47.9 nM, 19.1 nM and 8.36 nM, respectively.
As usually defined, the ED50 is the dose that gives a 50% effect, or the effect in half of the subjects. For `CN(C(=O)/C=C/c1ccoc1)[C@@H]1CC[C@@]2(O)[C@H]3Cc4ccc(O)c5c4[C@@]2(CCN3CC2CC2)[C@H]1O5.Cl` [NALFURAFINE HYDROCHLORIDE], the ED50 in the data set listed under Mus musculus [5] stood at 0.0344 mg/kg; with Mus musculus [6] it was 0.00622 mg/kg.
`CN(C(=O)CCc1ccccc1)[C@H]1C[C@@]23CCN(CC4CC4)[C@H]4C=C[C@@H]1C[C@]42Cc1ccc(O)cc13`: the Ratio Ki in [1] worked out at 2.34; in the data set filed under Mus musculus [4], 5.75. Also, the inhibitory constant (Ki) worked out at 4.36 nM on Mu-type opioid receptor, 10.7 nM in data set [2] and 1.86 nM in [3].
The matching figures for `CN(C(=O)Cc1ccccc1)[C@H]1C[C@@]23CCN(CC4CC4)[C@H]4C=C[C@@H]1C[C@]42Cc1ccc(O)cc13`: 7.05, 2.6, 12.2 nM, 4.5 nM and 1.73 nM.
The matching figures for `CN(C(=O)c1ccccc1)[C@H]1C[C@@]23CCN(CC4CC4)[C@H]4C=C[C@@H]1C[C@]42Cc1ccc(O)cc13`: 3.63, 0.493, 47.6 nM, 6.46 nM and 13.1 nM.
The matching figures for `CN(C(=O)CCc1ccccc1)[C@@H]1C[C@@]23CCN(CC4CC4)[C@H]4C=C[C@@H]1C[C@]42Cc1ccc(O)cc13`: 1.09, 7.49, 0.51 nM, 3.52 nM and 0.47 nM.
As for `CN(C(=O)c1ccccc1)[C@@H]1C[C@@]23CCN(CC4CC4)[C@H]4CCC1C[C@]42Cc1ccc(O)cc13` (single isomer, unassigned), the Ratio Ki in [1] came to 0.516; in the data set filed under Mus musculus [4] it was 6.72. Besides, the inhibition constant (Ki) is 0.28 nM at Mu-type opioid receptor, 3.65 nM in [2] and 0.543 nM in [3].
On the same counts, the results for `CN(C(=O)Cc1ccccc1)[C@H]1C[C@@]23CCN(CC4CC4)[C@H]4CCC1C[C@]42Cc1ccc(O)cc13` (single isomer, unassigned) are 5.42, 1.36, 59.6 nM, 15 nM and 11 nM.
With `CN(C(=O)c1ccccc1)[C@H]1C[C@@]23CCN(CC4CC4)[C@H]4CCC1C[C@]42Cc1ccc(O)cc13` (single isomer, unassigned), the Ratio Ki in [1] turned out to be 4.06; in the data set filed under Mus musculus [4] it was 0.092. Besides, the inhibitory constant (Ki) is 56 nM on Mu-type opioid receptor, 1.27 nM in data set [2] and 13.8 nM in data set [3].
The matching figures for `CN(C(=O)c1ccccc1)[C@@H]1C[C@@]23CCN(CC4CC4)[C@H]4C=C[C@@H]1C[C@]42Cc1ccc(O)cc13`: 0.61, 0.5, 2.7 nM, 2.23 nM and 4.46 nM.
Take `CN(C(=O)/C=C/c1ccoc1)[C@@H]1C[C@@]23CCN(CC4CC4)[C@H]4C=C[C@@H]1C[C@]42Cc1ccc(O)cc13`: the Ratio Ki in data set [1] came to 2.48; in the data set listed under Mus musculus [4] it was 17.3. In addition, the Ki was 0.57 nM at Mu-type opioid receptor, 3.98 nM in [2] and 0.23 nM in [3].
On the same counts, the results for `CN(C(=O)CCc1ccccc1)[C@H]1C[C@@]23CCN(CC4CC4)[C@H]4CCC1C[C@]42Cc1ccc(O)cc13` (single isomer, unassigned) are 0.966, 2.72, 11.5 nM, 32.4 nM and 11.9 nM.
In general, Emax refers to the maximal effect, on the per cent scale that the assay sets. By EC50 is commonly meant the midpoint of the concentration-response curve. Lower therefore signals higher potency in that assay. Turning to `CN(C(=O)/C=C/c1ccoc1)[C@H]1C[C@@]23CCN(CC4CC4)[C@H]4C=C[C@@H]1C[C@]42Cc1ccc(O)cc13.Cl`, the Ratio Ki amounted to 17 in data set [1] and 17.3 in the data set filed under Mus musculus [4]. The figures for the Ki (at Mu-type opioid receptor; in data set [2]; in data set [3]) were 13.9 nM, 14.2 nM and 0.82 nM, respectively. Further, the median effective dose (ED50) in the data set filed under Mus musculus [5] worked out at 7.74 mg/kg; in the data set on Mus musculus [6], 0.589 mg/kg. This compound had an Emax in data set [7] of 108%. In addition, in the data set on Mus musculus [8], the inhibition entry was “inactive”. The same compound came in with an EC50 in [9] of 11.8 nM. In the data set with Mus musculus [6], the inhibition result is “Dose-dependent effect”. The selectivity ratio in data set [10] came out at 13.1.
Turning to `CN(C(=O)Cc1ccccc1)[C@@H]1C[C@@]23CCN(CC4CC4)[C@H]4C=C[C@@H]1C[C@]42Cc1ccc(O)cc13`, the Ratio Ki was found to be 1.75 in data set [1] and 6.92 in the data set listed under Mus musculus [4]. Moreover, the Ki on Mu-type opioid receptor was 0.42 nM; in [2], 1.66 nM; in [3] it was 0.24 nM.
Take `CN(C(=O)Cc1ccccc1)[C@@H]1C[C@@]23CCN(CC4CC4)[C@H]4CCC1C[C@]42Cc1ccc(O)cc13` (single isomer, unassigned): the Ratio Ki is 1.45 in [1] and 8.75 in the data set listed under Mus musculus [4]. Further, the Ki amounted to 0.197 nM at Mu-type opioid receptor, 1.19 nM in data set [2] and 0.136 nM in [3].
The matching figures for `CN(C(=O)/C=C/c1ccoc1)[C@@H]1C[C@@]23CCN(CC4CC4)[C@H]4CC[C@@H]1C[C@]42Cc1ccc(O)cc13`: 1.14, 0.89, 0.232 nM, 0.182 nM and 0.204 nM.
On the same counts, the results for `CN(C(=O)CCc1ccccc1)[C@@H]1C[C@@]23CCN(CC4CC4)[C@H]4CCC1C[C@]42Cc1ccc(O)cc13` (single isomer, unassigned) are 2.03, 10.2, 0.229 nM, 1.15 nM and 0.113 nM.
